Test results taken from US20220362386A1, “LIQUID COMPOSITIONS COMPRISING A LEVODOPA AMINO ACID CONJUGATE AND USES THEREOF” (NeuroDerm, Ltd., priority 2019, published 2022).
Structures can show the parent of a compound that is named as a salt. Where two headings read alike, the source gives them in different places. Non-standard residues stand in square brackets, D forms with d. Residues, ends and D or L forms follow the SMILES beside them. Dopa = N[C@@H](Cc1ccc(O)c(O)c1)C(=O)O

Key:
[1] = Comparative formulation tests, physical stability (Tables 32a-c, 33a-c); assay type: physicochemical; details: LDAA TFA salt/CD formulation; for Physical stability (visual), Day 1: Day 1, room temperature; for Physical stability (visual), Day 2: Day 2, room temperature; for Physical stability (visual), Day 5: Day 5, room temperature after two days at 2-8° C.; for Physical stability (visual), Day 6: Day 6, room temperature after two days at 2-8° C.; for Physical stability (visual), Day 40: Day 40, returned to 2-8° C.
Protocol: It is noted that the formulations were similarly to those above; however, CD was added, and further, the amounts of the antioxidants, i.e., ascorbic acid and NAC, were added at three different concentrations, as detailed in Tables 32a-c below. Further, an additional amount of arginine was added to the solution in order to adjust the pH to a physiologically acceptable pH.
The formulations prepared as detailed in Tables 32a, 32b and 32c were (a) held at room temperature for two days; (b) transferred to a refrigerator (2-8° C.) for two days; and (c) transferred from the refrigerator to room temperature for an additional two days, during which they were assessed again for precipitants. The formulations were then returned to the refrigerator (2-8° C.) and assessed for precipitants on day 40. The physical stability of each formulation was assessed on the first two days and again on the last two days. The physical stability of the formulations was assessed visually. A clear solution was considered to be stable, while a solution comprising precipitants was considered to be physically unstable. The stability results of the formulations of Tables 32a, 32b and 32c are detailed in Tables 33a, 33b and 33c, respectively.

[2] = In-vitro metabolism of LDAA compounds using liver microsomes; assay type: in vitro ADME, human; details: for half-life at 0.1 μM / microsomal CLint at 0.1 μM: both sexes, human, pooled human liver microsomes; for half-life at 0.1 μM: pH 7.4, 1.0E−07M, 0.1 mg/mL microsomal protein; for microsomal CLint at 0.1 μM: pH 7.4, calculated from the half-life; for microsomal CLint at 0.1 μM / % Compound Remaining 1st / % Compound Remaining 2nd / % Compound Remaining Mean: 1.0E−07M
Protocol: The stability of test compounds in pooled human liver microsomes was determined on 96-well plates, wherein the test compounds were quantified at five time points by HPLC-MS/MS analysis. The assay matrix included mixed gender and a pool of 50 human liver microsomes, wherein the final microsomal protein concentration was 0.1 mg/mL. The test concentration was 0.1 μM with 0.01% DMSO, 0.25% acetonitrile and 0.25% methanol.
Each test compound was pre-incubated for five minutes with pooled liver microsomes in phosphate buffer (pH 7.4) in a 37° C. shaking water-bath. The reaction was initiated by adding a nicotinamide adenine dinucleotide phosphate (NADPH)-generating system and incubating for 0, 15, 30, 45, and 60 min. The reaction was stopped by transferring the incubation mixture to acetonitrile/methanol. Samples were then mixed and centrifuged, wherein the supernatants were used for HPLC-MS/MS analysis.
In each assay the four reference compounds propranolol, imipramine, verapamil and terfenadine were tested, wherein the propranolol and the imipramine are known to be relatively stable, while the verapamil and the terfenadine are known to be readily metabolized in human liver microsomes.
All samples were analyzed by HPLC-MS/MS using selected reaction monitoring. The HPLC system consisted of a binary LC pump with autosampler, a C-18 column, and a gradient. The conditions were adjusted when necessary.
Peak areas corresponding to the test compound were recorded. The amount of each compound remaining was calculated by comparing the peak area at each time point to time zero. The half-life is calculated from the slope of the initial linear range of the logarithmic curve of compound remaining (%) vs. time, assuming first order kinetics. In addition, the intrinsic clearance (Clint) was calculated from the half-life using the following equation:
Clint(μL/min/mg protein)=0.693/(t1/2×protein concentration)
The results of the in-vitro human liver microsome metabolism tests of various LDAA compounds (10^−7M), in their TFA salt forms, are provided in FIG. 1 and in Table 17, which presents the % of the compound remaining at times 0, 15, 30, 45 and 60 minutes, two half-life measurements and the Clint, calculated as detailed above.

[3] = test system: P-gp; assay: In-vitro absorption, Caco-2 A-B permeability; assay type: in vitro ADME, human; details: human, Caco-2, pH 7.4, with verapamil 100 μM on both the A and B sides, Caco-2 A-B, in the presence of verapamil
Protocol: (§1) Conditions may be adjusted when necessary.
(§2) D denotes donor and R is receiver. […] V is the volume of the donor or receiver.
(§3) The test was performed with and without verapamil, which is a permeation inhibitor, and the results are presented in Tables 22 (without verapamil) and 34 (with verapamil).

[4] = In-vitro absorption, Caco-2 A-B permeability; assay type: in vitro ADME, human; details: human, Caco-2, pH 7.4, Caco-2 A-B, without verapamil; for Papp A→B at 60 min, 10 μM: 1.0E−05M
Protocol: as §1, §2, §3

[5] = NB 144-15, ~0.1% Asc + ~0.1% NAC
[6] = NB 144-18, ~0.4% Asc + ~0.4% NAC
[7] = NB 144-20, ~0.8% Asc + ~0.8% NAC
[8] = read-out: Half-Life (minute) 1st
[9] = read-out: Half-Life (minute) 2nd
[10] = read-out: Half-Life (minute) Mean
[11] = read-out: Percent Recovery Mean

SMILES: N=C(N)NCCC[C@H](NC(=O)[C@@H](N)Cc1ccc(O)c(O)c1)C(=O)O [LD-Arg TFA salt, Levodopa Arginine TFA Salt]
- Physical stability (visual), Day 1 [1, 5]: Stable
- Physical stability (visual), Day 2 [1, 5]: Stable
- Physical stability (visual), Day 5 [1, 5]: Stable
- Physical stability (visual), Day 6 [1, 5]: Stable
- Physical stability (visual), Day 40 [1, 5]: Stable
- Physical stability (visual), Day 1 [1, 6]: Stable
- Physical stability (visual), Day 2 [1, 6]: Stable
- Physical stability (visual), Day 5 [1, 6]: Stable
- Physical stability (visual), Day 6 [1, 6]: Stable
- Physical stability (visual), Day 40 [1, 6]: Stable
- Physical stability (visual), Day 1 [1, 7]: Stable
- Physical stability (visual), Day 2 [1, 7]: Stable
- Physical stability (visual), Day 5 [1, 7]: Stable
- Physical stability (visual), Day 6 [1, 7]: Stable
- Physical stability (visual), Day 40 [1, 7]: Stable
- half-life at 0.1 μM [2, 8]: 42.9 min
- half-life at 0.1 μM [2, 9]: 40.5 min
- half-life at 0.1 μM [2, 10]: 42 min
- microsomal CLint at 0.1 μM [2]: 166 µL/min/mg
- % Compound Remaining 1st ([2]; incubation time 0 minutes): 100%
- % Compound Remaining 2nd ([2]; incubation time 0 minutes): 100%
- % Compound Remaining Mean ([2]; incubation time 0 minutes): 100%
- % Compound Remaining 1st ([2]; incubation time 15 minutes): 109.7%
- % Compound Remaining 2nd ([2]; incubation time 15 minutes): 111.8%
- % Compound Remaining Mean ([2]; incubation time 15 minutes): 111%
- % Compound Remaining 1st ([2]; incubation time 30 minutes): 84.2%
- % Compound Remaining 2nd ([2]; incubation time 30 minutes): 90.9%
- % Compound Remaining Mean ([2]; incubation time 30 minutes): 88%
- % Compound Remaining 1st ([2]; incubation time 45 minutes): 70%
- % Compound Remaining 2nd ([2]; incubation time 45 minutes): {52.4} %
- % Compound Remaining Mean ([2]; incubation time 45 minutes): 70%
- % Compound Remaining 1st ([2]; incubation time 60 minutes): 37.3%
- % Compound Remaining 2nd ([2]; incubation time 60 minutes): 38.6%
- % Compound Remaining Mean ([2]; incubation time 60 minutes): 38%
- recovery at 60 min, 10 μM ([3]; read-out: Percent Recovery 1st): 25%
- recovery at 60 min, 10 μM ([3]; read-out: Percent Recovery 2nd): 26%
- recovery at 60 min, 10 μM [3, 11]: 25%
- Papp A→B at 60 min, 10 μM ([4]; read-out: Permeability 1st): 0.1 ×10⁻⁶ cm/s
- Papp A→B at 60 min, 10 μM ([4]; read-out: Permeability 2nd): 0.09 ×10⁻⁶ cm/s
- Papp A→B at 60 min, 10 μM ([4]; read-out: Permeability Mean): < 0.1 ×10⁻⁶ cm/s
- recovery at 60 min, 10 μM ([4]; read-out: Percent Recovery 1st): 26%
- recovery at 60 min, 10 μM ([4]; read-out: Percent Recovery 2nd): 26%
- recovery at 60 min, 10 μM [4, 11]: 26%

SMILES: NC(=O)CC[C@H](NC(=O)[C@@H](N)Cc1ccc(O)c(O)c1)C(=O)O [LD-Gln TFA salt, Levodopa Glutamine TFA Salt] (H-[Dopa]-Gln-OH)
- half-life at 0.1 μM [2, 8]: 155 min
- half-life at 0.1 μM [2, 9]: 158 min
- half-life at 0.1 μM [2, 10]: > 60 min
- microsomal CLint at 0.1 μM [2]: < 116 µL/min/mg
- % Compound Remaining 1st ([2]; incubation time 0 minutes): 100%
- % Compound Remaining 2nd ([2]; incubation time 0 minutes): 100%
- % Compound Remaining Mean ([2]; incubation time 0 minutes): 100%
- % Compound Remaining 1st ([2]; incubation time 15 minutes): 103.4%
- % Compound Remaining 2nd ([2]; incubation time 15 minutes): {121.2%
- % Compound Remaining Mean ([2]; incubation time 15 minutes): 103%
- % Compound Remaining 1st ([2]; incubation time 30 minutes): 68.2%
- % Compound Remaining 2nd ([2]; incubation time 30 minutes): {139.0%
- % Compound Remaining Mean ([2]; incubation time 30 minutes): 68%
- % Compound Remaining 1st ([2]; incubation time 45 minutes): 81.8%
- % Compound Remaining 2nd ([2]; incubation time 45 minutes): 94.1%
- % Compound Remaining Mean ([2]; incubation time 45 minutes): 88%
- % Compound Remaining 1st ([2]; incubation time 60 minutes): 80.4%
- % Compound Remaining 2nd ([2]; incubation time 60 minutes): 72.8%
- % Compound Remaining Mean ([2]; incubation time 60 minutes): 77%
- recovery at 60 min, 10 μM ([3]; read-out: Percent Recovery 1st): 74%
- recovery at 60 min, 10 μM ([3]; read-out: Percent Recovery 2nd): 69%
- recovery at 60 min, 10 μM [3, 11]: 71%
- Papp A→B at 60 min, 10 μM ([4]; read-out: Permeability 1st): 1.83 ×10⁻⁶ cm/s
- Papp A→B at 60 min, 10 μM ([4]; read-out: Permeability 2nd): 1.47 ×10⁻⁶ cm/s
- Papp A→B at 60 min, 10 μM ([4]; read-out: Permeability Mean): 1.7 ×10⁻⁶ cm/s
- recovery at 60 min, 10 μM ([4]; read-out: Percent Recovery 1st): 68%
- recovery at 60 min, 10 μM ([4]; read-out: Percent Recovery 2nd): 70%
- recovery at 60 min, 10 μM [4, 11]: 69%
